The subject of assay [1] is HT-29 cells. In words: Growth inhibition, SRB assay, HT-29. Type of assay: cell-based, human.
For assay [2], the target named is T1, cyclooxygenase (Type 1), COX-I (Ovis aries, UniProt P05979).
T1 sequence (P05979 25-600): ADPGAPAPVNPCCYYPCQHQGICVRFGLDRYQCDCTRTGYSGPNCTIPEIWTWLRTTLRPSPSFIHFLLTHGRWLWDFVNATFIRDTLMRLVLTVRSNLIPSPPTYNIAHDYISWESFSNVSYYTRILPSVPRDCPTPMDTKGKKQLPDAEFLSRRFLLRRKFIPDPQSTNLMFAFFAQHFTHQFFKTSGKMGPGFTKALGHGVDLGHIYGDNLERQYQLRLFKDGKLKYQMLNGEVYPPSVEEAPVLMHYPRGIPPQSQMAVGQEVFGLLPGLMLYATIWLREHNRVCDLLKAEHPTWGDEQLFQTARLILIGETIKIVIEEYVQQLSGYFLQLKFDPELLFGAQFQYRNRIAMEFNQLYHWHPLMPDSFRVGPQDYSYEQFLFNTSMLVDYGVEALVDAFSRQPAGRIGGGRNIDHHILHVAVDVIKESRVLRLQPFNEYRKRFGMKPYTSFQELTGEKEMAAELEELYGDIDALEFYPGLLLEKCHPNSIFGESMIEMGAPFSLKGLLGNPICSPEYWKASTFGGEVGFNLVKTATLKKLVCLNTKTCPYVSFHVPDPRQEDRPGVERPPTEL
The experiment in a line: COX inhibition assay, purified cyclooxygenase. Particulars: for COX-I inhibition: FIG. 5.

Assay [3] concerns cGMP PDE from human colon HT-29 cultured tumor cells. In words: cGMP PDE inhibition assay. Type of assay: biochemical.
Assay [4] addresses T2, cGMP binding sites of the GST-cGB-PDE5 Protein (Homo sapiens, UniProt O76074).
T2 construct: made in house; host or cells: E. coli BL21 (DE3)
In words: cGMP binding assay with GST-cGB-PDE5 fusion protein. The conditions noted are these: 3H-cGMP 2 μM.

Assay [5] deals with T3, Peak A (PDE5) from SW480 cells (Homo sapiens, UniProt O76074).
T3 construct: To isolate the novel phosphodiesterase from SW480, approximately four hundred million SW480 cells were grown to confluence; endogenous in cells; host or cells: SW480 colon cancer cells; DEAE-Trisacryl M fraction (peak A)
In words: cGMP hydrolysis inhibition, PDE peak A from SW480. Type of assay: biochemical.

For assay [6], the target named is T4, novel cGMP-specific PDE (Peak B) from SW480 cells (Homo sapiens, UniProt O00408).
T4 construct: IC50 Peak B (μM)
In words: cGMP hydrolysis inhibition, novel PDE peak B (Section IA) from SW480. Type of assay: biochemical.

For assay [7], the system named is HT-29 cells. The experiment in a line: cGMP and cAMP levels in HT-29 cells by radioimmunoassay. Type of assay: cell-based, human. Particulars: HT-29 cells treated 30 minutes. (Changes in cAMP serve as a functional read-out for many G protein-coupled receptors.)
Assay [8] deals with premalignant lesions in mouse mammary gland organ culture. The experiment in a line: Mammary gland organ culture model. The class given is cell-based. An excerpt:
Test compounds identified by the above methods can be tested for antineoplastic activity by their ability to inhibit the incidence of pre-neoplastic lesions in a mammary gland organ culture system. This mouse mammary gland organ culture technique has been successfully used by other investigators to study the effects of known antineoplastic agents such as certain NSAIDs, retinoids, tamoxifen, selenium, and certain natural products, and is useful for validation of the screening method of the present invention.
For example, female BALB/c mice can be treated with a combination of estradiol and progesterone daily, in order to prime the glands to be responsive to hormones in vitro. The animals are sacrificed, and thoracic mammary glands are excised aseptically and incubated for ten days in growth media supplemented with insulin, prolactin, hydrocortisone, and aldosterone. DMBA (7,12 dimethylbenz(a)anthracene) is added to medium to induce the formation of premalignant lesions. Fully developed glands are then deprived of prolactin, hydrocortisone, and aldosterone, resulting in the regression of the glands but not the pre-malignant lesions.
The test compound is dissolved in DMSO and added to the culture media for the duration of the culture period. At the end of the culture period, the glands are fixed in 10% formalin, stained with alum carmine, and mounted on glass slides. The incidence of forming mammary lesions is the ratio of the glands with mammary lesions to […]. The incidence of mammary lesions in test compound treated glands is compared with that of the untreated glands.
The extent of the area occupied by the mammary lesions can be quantitated by projecting an image of the gland onto a digitation pad. The area covered by the gland is traced on the pad and considered as 100% of the area. The space covered by each of the non-regressed structures is also outlined on the digitization pad and quantitated by the computer.
Mammary gland organ culture experiment were performed as previously described (Mehta and Moon, Cancer Research, 46:5832-5835, 1986). […]

Like-named read-outs stand apart in the source and are kept apart here.

T4 sequence (O00408 2-941): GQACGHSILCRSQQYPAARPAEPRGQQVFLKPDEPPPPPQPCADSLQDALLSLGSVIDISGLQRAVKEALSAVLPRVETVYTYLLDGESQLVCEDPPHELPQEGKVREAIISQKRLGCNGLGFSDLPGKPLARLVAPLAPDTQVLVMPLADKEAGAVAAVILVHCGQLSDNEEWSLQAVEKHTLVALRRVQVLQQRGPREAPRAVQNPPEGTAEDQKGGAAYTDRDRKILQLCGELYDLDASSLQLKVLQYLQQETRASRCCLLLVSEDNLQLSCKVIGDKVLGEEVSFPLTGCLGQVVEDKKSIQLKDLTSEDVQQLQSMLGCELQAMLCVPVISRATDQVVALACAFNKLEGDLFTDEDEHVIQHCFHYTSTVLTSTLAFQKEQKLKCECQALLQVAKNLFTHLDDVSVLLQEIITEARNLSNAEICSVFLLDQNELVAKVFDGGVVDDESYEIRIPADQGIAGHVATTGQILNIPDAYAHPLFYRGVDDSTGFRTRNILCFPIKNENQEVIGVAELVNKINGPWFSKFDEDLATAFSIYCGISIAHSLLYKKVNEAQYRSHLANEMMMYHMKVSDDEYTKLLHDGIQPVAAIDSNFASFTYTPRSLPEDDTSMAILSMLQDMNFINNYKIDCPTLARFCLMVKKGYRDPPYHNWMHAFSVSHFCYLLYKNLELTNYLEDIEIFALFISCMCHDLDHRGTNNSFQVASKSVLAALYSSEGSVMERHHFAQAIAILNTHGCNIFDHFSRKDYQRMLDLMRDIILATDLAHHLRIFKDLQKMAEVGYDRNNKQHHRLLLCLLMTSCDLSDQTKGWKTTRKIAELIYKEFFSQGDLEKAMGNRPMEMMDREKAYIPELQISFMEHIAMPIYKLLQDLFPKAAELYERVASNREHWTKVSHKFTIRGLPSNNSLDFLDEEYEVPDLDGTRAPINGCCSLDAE

On to `CC(=O)NC(CSC12CC(=O)OC1(C)/C(=C/c1ccc(S(C)(=O)=O)cc1)c1ccc(F)cc12)C(=O)O` (racemic) [D, rac-(E)-1-(butan-1′,4′-olido)-[3′,4′:1,2]-6-fluoro-2-methyl-3-(p-methylsulfonylbenzylidene)-1S-indanyl-N-acetylcysteine], for which the “Growth % Inhibition at 100 μM” value with HT-29 cells [1] amounted to 78%. Besides, the “COX % Inhibition at 100 μM” value in assay [2] is listed as under 25%.
On to `COc1cc(C=C2C(C)=C(CC(=O)O)c3cc(F)ccc32)cc(OC)c1OC` [Compound B, (Z)-5-Fluoro-2-methyl-1-(3,4,5-trimethoxybenzylidene)-3-acetic acid], for which, in assay [3], the “cGMP PDE % Inhibition at 10 μM” value is reported as under 25%. For the same molecule, in assay [4], the “competition with cGMP in binding of GST-cGB-PDE5” value (shortened to “competition with cGMP in binding”) was “None of the PDE5 inhibitors showed any competition with cGMP”. For the same molecule, the COX-I inhibition entry in assay [2] is “neither test compound B and E significantly inhibit COX-I”.
On to `CC1=C(CC(=O)O)c2cc(F)ccc2/C1=C\c1ccc(Cl)cc1` [Compound C, (Z)-5-Fluoro-2-methyl-1-(p-chlorobenzylidene)-3-acetic acid], for which the “cGMP PDE % Inhibition at 10 μM” value in assay [3] was under 25%. Moreover, in the assay on HT-29 cells [1], the “Growth % Inhibition at 100 μM” value was 80%.
Consider `COc1cc(/C=C2/C(C)=C(CC(=O)NCc3ccccc3)c3cc(F)ccc32)cc(OC)c1OC` [Compound E, (Z)-5-Fluoro-2-methyl-1-(3,4,5-trimethoxybenzylidene)-3-indenylacetamide, N-benzyl], for which the “competitive (with cGMP) binding to PDE 5 (peak A)” value in assay [5] is recorded as “does competitively (with cGMP) bind to PDE 5”. In assay [6], the “competitive (with cGMP) binding to PDE peak B” value is “competitively (with cGMP) binds to PDE peak B”. Moreover, in assay [3] (10 µM), the “cGMP PDE % Inhibition at 10 μM” value came out at 75%. Also, the “competition with cGMP in binding” value in assay [4] is listed as “None of the PDE5 inhibitors showed any competition with cGMP”. Also, in assay [2], the COX-I inhibition entry is “neither test compound B and E significantly inhibit COX-I”.
Consider `Clc1cccc(Nc2nnc(-c3ccccc3)c3ccccc23)c1` [MY5445, 1-(3-chloroanilino)-4-phenyphthalazine, reference compound], for which the “COX % Inhibition at 100 μM” value in assay [2] was 94%.
`COc1ccc(C2CNC(=O)C2)cc1OC1CCCC1` (centres unmarked) [Rolipram]: the “levels of cAMP” value with HT-29 cells [7] is reported as “increased cAMP”.
Regarding `CCCc1nn(C)c2c(=O)[nH]c(-c3cc(S(=O)(=O)N4CCN(C)CC4)ccc3OCC)nc12` [Sildenafil, reference compound], the “inhibition of activity of peak A” value in assay [5] was “inhibited activity of peak A”.
As to `CCCOc1ccccc1-c1nc2nn[nH]c2c(=O)[nH]1` [Zaprinast], the “competition with cGMP in binding” value in assay [4] was “None of the PDE5 inhibitors showed any competition with cGMP”.
`CC1=C(CC(=O)O)c2cc(F)ccc2/C1=C\c1ccc([S+](C)[O-])cc1` (centres unmarked) [sulindac]: in assay [8], the “inhibition of formation of premalignant lesions” value is reported as “effectively inhibit the formation of premalignant lesions”.

These data come from patent US6500610B1, “Methods for identifying compounds for inhibiting of neoplastic lesions, and pharmaceutical compositions containing such compounds” (Cell Pathways, INC, priority 1997, dated 2002).
